Measurements: the supplement of paper PMC10307832

Columns and labels:
Assay in all cases: relative viability (nuclei count vs DMSO), 5 days (fraction); higher = more cells survive
[1] = compound: CC(C)CCN1c2nc(Nc3cc(F)c(O)c(F)c3)ncc2N(C)C(=O)C1C [BI-D1870] + C[C@@H](Oc1cc(-c2cnn(C3CCNCC3)c2)cnc1N)c1c(Cl)ccc(F)c1Cl [Crizotinib] (partner 1 µM)
Procedure, shortened: (§1)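 After 5 days of treatment, lung cancer cells in 1536-well plates were fixed and stained in a single step (final 0.05% Triton X-100, 1% formaldehyde, 1 ug/ml Hoechst) and their nuclei counted on 4× images. Treatment had been applied by pin tool the day after seeding as one drug alone or as a fixed anchor-drug dose with five library-drug doses (not always all listed) in √10 steps. Relative viability is the nuclei count of treated wells divided by that of vehicle wells, and values are medians of duplicate plates.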

[2] = compound: CC(C)CCN1c2nc(Nc3cc(F)c(O)c(F)c3)ncc2N(C)C(=O)C1C [BI-D1870] + C[C@]1(O)C[C@@H](c2nc(-c3ccc4ccc(-c5ccccc5)nc4c3)c3c(N)nccn32)C1 [Linsitinib] (partner 1 µM)
Procedure, shortened: as §1

[3] = compound: O=c1ncccn1[C@@H]1O[C@H](CO)[C@@H](O)[C@H]1O [Zebularine] + CC(=O)c1c(C)c2cnc(Nc3ccc(N4CCNCC4)cn3)nc2n(C2CCCC2)c1=O [Palbociclib] (partner 0.5 µM)
Procedure, shortened: as §1

[4] = compound: O=c1ncccn1[C@@H]1O[C@H](CO)[C@@H](O)[C@H]1O [Zebularine] + Nc1ncn([C@H]2C[C@H](O)[C@@H](CO)O2)c(=O)n1 [Decitabine] (partner 2 µM)
Procedure, shortened: as §1

Row | Cell Line | relative viability ([1]; first compound 0.04 µM) | relative viability ([1]; first compound 0.1265 µM) | relative viability ([1]; first compound 0.4 µM) | relative viability ([1]; first compound 1.265 µM) | relative viability ([1]; first compound 4 µM) | relative viability ([2]; first compound 0.04 µM) | relative viability ([2]; first compound 0.1265 µM) | relative viability ([2]; first compound 0.4 µM) | relative viability ([2]; first compound 1.265 µM) | relative viability ([2]; first compound 4 µM) | relative viability ([3]; first compound 1 µM) | relative viability ([3]; first compound 3.162 µM) | relative viability ([3]; first compound 10 µM) | relative viability ([3]; first compound 31.62 µM) | relative viability ([3]; first compound 100 µM) | relative viability ([4]; first compound 1 µM) | relative viability ([4]; first compound 3.162 µM) | relative viability ([4]; first compound 10 µM) | relative viability ([4]; first compound 31.62 µM) | relative viability ([4]; first compound 100 µM)
1 | NCI-H1651 | 0.91 | 0.821 | 0.821 | 0.939 | 0.872 | 1.09 | 0.907 | 0.962 | 0.922 | 0.752 | 0.525 | 0.491 | 0.507 | 0.557 | 0.352 | 0.714 | 0.56 | 0.58 | 0.522 | 0.347
2 | NCI-H1666 | 0.932 | 0.813 | 1.1 | 1.04 | 0.803 | 0.921 | 0.814 | 0.865 | 0.843 | 0.872 | 0.629 | 0.642 | 0.58 | 0.689 | 0.654 | 0.8 | 0.736 | 0.698 | 0.712 | 0.669
3 | NCI-H1734 | 0.806 | 0.618 | 0.593 | 0.664 | 0.645 | 0.967 | 0.816 | 0.875 | 0.935 | 0.788 | 0.408 | 0.334 | 0.322 | 0.3 | 0.239 | 0.445 | 0.828 | 0.421 | 0.516 | 0.295
4 | NCI-H1755 | 0.977 | 0.838 | 0.876 | 0.829 | 0.762 | 0.982 | 0.975 | 1.04 | 0.967 | 0.941 | 0.496 | 0.455 | 0.45 | 0.474 | 0.415 | 0.713 | 0.715 | 0.703 | 0.786 | 0.615
5 | NCI-H1792 | 1.06 | 0.994 | 0.908 | 1.13 | 0.858 | 0.622 | 0.607 | 0.47 | 0.619 | 0.387 | 0.639 | 0.732 | 0.282 | 0.401 | 0.423 | 0.62 | 0.531 | 0.292 | 0.292 | 0.254
6 | NCI-H1915 | 0.932 | 0.835 | 0.962 | 0.935 | 0.881 | 1.1 | 1.12 | 1.1 | 1.12 | 1.05 | 0.523 | 0.525 | 0.485 | 0.541 | 0.352 | 0.284 | 0.278 | 0.261 | 0.265 | 0.282
7 | NCI-H1944 | 1.19 | 0.978 | 1.05 | 1.36 | 1.11 | 1.34 | 1.18 | 1.07 | 1.38 | 1.08 | 0.309 | 0.353 | 0.339 | 0.36 | 0.329 | 0.455 | 0.424 | 0.449 | 0.461 | 0.395
8 | NCI-H1975 | 1.05 | 0.988 | 1.01 | 1.03 | 0.484 | 1.01 | 0.849 | 0.874 | 0.94 | 0.636 | 0.818 | 0.596 | 0.291 | 0.317 | 0.259 | 0.428 | 0.346 | 0.345 | 0.35 | 0.267
9 | NCI-H1993 | 0.891 | 0.842 | 0.801 | 0.916 | 0.73 | 0.812 | 0.739 | 0.726 | 0.703 | 0.797 | 0.726 | 0.704 | 0.615 | 0.633 | 0.695 | 0.639 | 0.602 | 0.506 | 0.601 | 0.703
10 | NCI-H2009 | 1.06 | 0.996 | 0.962 | 0.609 | 0.457 | 1.29 | 1.13 | 1.23 | 1.13 | 0.881 | 0.249 | 0.229 | 0.234 | 0.198 | 0.197 | 0.386 | 0.36 | 0.33 | 0.383 | 0.266
11 | NCI-H2023 | 0.724 | 0.525 | 0.579 | 0.612 | 0.497 | 0.72 | 0.507 | 0.569 | 0.605 | 0.543 | 0.361 | 0.375 | 0.235 | 0.322 | 0.245 | 0.243 | 0.22 | 0.166 | 0.199 | 0.182
12 | NCI-H2085 | 0.861 | 0.561 | 0.819 | 0.724 | 0.772 | 0.93 | 0.81 | 0.896 | 0.885 | 0.68 | 0.451 | 0.47 | 0.509 | 0.552 | 0.394 | 0.543 | 0.506 | 0.487 | 0.576 | 0.508
13 | NCI-H2087 | 0.918 | 0.914 | 1 | 1.11 | 0.739 | 1.09 | 1.02 | 1.17 | 1.01 | 0.699 | 0.275 | 0.207 | 0.243 | 0.218 | 0.185 | 0.322 | 0.294 | 0.207 | 0.279 | 0.223
14 | NCI-H2126 | 1.09 | 1.07 | 0.994 | 1.04 | 1.01 | 0.724 | 0.712 | 0.694 | 0.73 | 0.677 | 0.363 | 0.342 | 0.386 | 0.377 | 0.318 | 0.582 | 0.629 | 0.585 | 0.608 | 0.396
15 | NCI-H2347 | 0.812 | 0.674 | 0.7 | 0.662 | 0.577 | 1.07 | 0.965 | 0.962 | 1.03 | 0.899 | 0.471 | 0.411 | 0.414 | 0.471 | 0.338 | 0.658 | 0.598 | 0.544 | 0.575 | 0.371
16 | NCI-H2405 | 0.952 | 0.863 | 0.836 | 0.94 | 0.795 | 1.07 | 0.839 | 0.901 | 1.06 | 0.909 | 0.524 | 0.533 | 0.478 | 0.509 | 0.435 | 0.731 | 0.699 | 0.671 | 0.765 | 0.58
